Test results from US7268232B2 (Acadia Pharmaceuticals Inc., priority 2004, dated 2007).
pEC50: −log10 of the molar value. Structures can show the parent of a compound that is named as a salt.

Tests used:
[1] = tested on: castrated male Sprague Dawley rats; assay: Rat luteinizing hormone (LH) plasma levels by ELISA after daily s.c. administration for 14 days; type: in vivo; settings: for dose at which complete reversal of plasma LH levels is evident: s.c. daily for 14 days
Protocol: (§1) Androgen Receptor agonist 116BG33 was administered s.c. daily for two weeks to castrated male Sprague Dawley rats (n=3). The effects of 116BG33 (3, 10, 30 mg/kg) were compared to testosterone propionate (0.1 and 1 mg/kg; positive control) and vehicle (10% Tween80; negative control). Blood and wet weights of prostate gland and seminal vesicle were measured after sacrifice that occurred 24 hours after the last dose. Blood was collected in heparin collection tubes after sacrifice that occurred 24 hours after the last dose. Blood was centrifuged and plasma collected and plasma samples frozen.
Rat luteinizing hormone (LH) plasma levels were determined using an enzyme linked immunoabsorbent assay (ELISA) from Amersham as per manufacturer's instructions. The solid phase assay is based on the competition between unlabeled rLH and a fixed quantity of biotin labelled rLH for a limited amount of rLH specific antibody. A conjugate streptavidin/peroxidase allows for signal amplification and detection in presence of the substrate.

[2] = tested on: castrated male Sprague Dawley rats; assay: Wet tissue weights (prostate, seminal vesicle, levator ani muscle) after daily s.c. administration for two weeks; type: in vivo, rat; settings: for wet weight of prostate / wet weight of seminal vesicle: castrated rats
Protocol: as §1

[3] = biological target: T1, Androgen AR receptor (Homo sapiens, UniProt P10275); assay: Receptor Selection and Amplification (R-SAT) assay, androgen receptor agonist activity; type: cell-based; settings: for Emax: NIH3T3, read-out: % Efficacy
T1 construct: expressed in transfected cells; host or cells: NIH3T3 cells
T1 sequence (P10275 1-920): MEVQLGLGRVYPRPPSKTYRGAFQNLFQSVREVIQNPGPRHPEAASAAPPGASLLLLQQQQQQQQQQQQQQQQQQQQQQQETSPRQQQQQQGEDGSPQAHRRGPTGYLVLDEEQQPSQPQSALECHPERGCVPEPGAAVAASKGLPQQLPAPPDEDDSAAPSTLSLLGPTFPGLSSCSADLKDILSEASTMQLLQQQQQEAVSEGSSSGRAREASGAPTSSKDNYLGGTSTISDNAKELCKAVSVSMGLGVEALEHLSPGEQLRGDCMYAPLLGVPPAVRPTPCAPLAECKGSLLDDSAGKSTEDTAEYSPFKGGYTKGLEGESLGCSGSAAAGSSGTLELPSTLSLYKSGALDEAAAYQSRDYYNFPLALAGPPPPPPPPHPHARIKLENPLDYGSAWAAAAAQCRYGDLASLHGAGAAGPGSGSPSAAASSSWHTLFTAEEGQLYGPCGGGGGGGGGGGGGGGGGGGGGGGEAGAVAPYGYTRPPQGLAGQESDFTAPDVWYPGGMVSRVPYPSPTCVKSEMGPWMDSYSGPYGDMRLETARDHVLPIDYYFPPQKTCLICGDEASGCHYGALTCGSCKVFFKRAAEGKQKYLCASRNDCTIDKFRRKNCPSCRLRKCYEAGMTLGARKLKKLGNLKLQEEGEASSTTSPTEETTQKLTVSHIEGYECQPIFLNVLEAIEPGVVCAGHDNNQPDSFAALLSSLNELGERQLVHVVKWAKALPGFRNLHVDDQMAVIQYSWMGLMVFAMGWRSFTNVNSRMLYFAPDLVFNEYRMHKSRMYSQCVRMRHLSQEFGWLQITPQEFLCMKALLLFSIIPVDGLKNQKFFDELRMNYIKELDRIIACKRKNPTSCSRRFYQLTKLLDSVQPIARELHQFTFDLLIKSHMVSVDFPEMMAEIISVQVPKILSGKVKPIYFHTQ
Protocol: Receptor Selection and Amplification (R-SAT) Assays. The functional receptor assay, Receptor Selection and Amplification Technology (R-SAT™), was used with minor modifications from the procedure described previously (Brann, M. R. U.S. Pat. No. 5,707,798, 1998) to screen compounds for efficacy at the Androgen AR receptor. Briefly, NIH3T3 cells were grown in roller bottles to 70-80% confluence. Cells were then transfected for 12-16 h with plasmid DNAs using Polyfect (Qiagen Inc.) as per the manufacturer's protocol. R-SAT assays were typically performed by transfecting 30 ug/bottle of receptor and 50 ug/bottle of β-galactosidase plasmid DNA. All receptor and helper constructs used were in mammalian expression vectors. Helpers are defined as signaling molecules that modulate both ligand-dependent and/or ligand-independent function of the AR receptor, typically co-activators. NIH3T3 cells were transfected for 12-16 h, then trypsinized and frozen in DMSO. Frozen cells were later thawed, plated at 10,000-40,000 cells per well of a 96 well plate containing drug. Cells were then grown in a humidified atmosphere with 5% ambient CO2 for five days. Media was then removed from the plates and marker gene activity was measured by the addition of the β-galactosidase substrate o-nitrophenyl β-D-galactopyranoside (ONPG, in PBS with 5% NP-40). The resulting colorimetric reaction was measured in a spectrophotometric plate reader (Titertek Inc.) at […]. All data were analyzed using the computer program XLFit (IDBSm).

[4] = 3, 10 or 30 mg/kg s.c. daily for two weeks, compared to vehicle
[5] = 0.1 mg/kg s.c. daily for two weeks, compared to vehicle
[6] = 1 mg/kg s.c. daily for two weeks, compared to vehicle

O=[N+]([O-])c1ccc(N2CCCC2)c2ccccc12 [116BG33, 1-(4-Nitronaphthalen-1-yl)pyrrolidine]
dose at which complete reversal of plasma LH levels is evident [1]: 30 mg/kg | plasma LH levels ([1]; sub-cutaneous, 3, 10, 30 mg/kg, 14 days): reduces LH levels to physiological norms | wet weight of prostate [2, 4]: did not have any effect | wet weight of seminal vesicle [2, 4]: did not have any effect

CC1C=CC(C)N1c1ccc(C#N)c2ccccc12 (stereo not drawn) [196MBT2-7, 4-(2,5-Dimethyl-2,5-dihydropyrrol-1-yl)naphthalene-1-carbonitrile]
pEC50 [3]: 8.10 | Emax [3]: 85%

CC1(O)CC2CCC(C1)N2c1ccc(C#N)c2ccccc12 (stereo not drawn) [156AF70-267, 4-(3-Endo-hydroxy-3-exo-methyl-8-azabicyclo[3.2.1]oct-8-yl)naphthalene-1-carbonitrile]
pEC50 [3]: 8.70 | Emax [3]: 88%

N#Cc1ccc(N2[C@@H]3CC[C@H]2CC(NCCc2c[nH]cn2)C3)c2ccccc12 (mixture of isomers) [156AF11-229, 4-{3-[2-(1H-Imidazol-4-yl)ethylamino]-8-azabicyclo[3.2.1]oct-8-yl}naphthalene-1-carbonitrile, dihydrochloride]
pEC50 [3]: 6.80 | Emax [3]: 44%

N#Cc1ccc(N2C3CCC2CC(OC(=O)CCN2CCOCC2)C3)c2ccccc12 (stereo not drawn) [156AF32-246, 3-Morpholin-4-ylpropionic acid endo-8-(4-cyanonaphthalen-1-yl)-8-azabicyclo[3.2.1]oct-3-yl ester, hydrochloride]
pEC50 [3]: 7.40 | Emax [3]: 57%

CCC(=O)O[C@H]1CC[C@H]2[C@@H]3CCC4=CC(=O)CC[C@]4(C)[C@H]3CC[C@]12C [testosterone propionate]
plasma LH levels ([1]; 1 mg/kg, s.c. for 14 days, versus naive rats): restored LH levels to those obtained in naive rats | plasma LH levels ([1]; chronic administration (14 days), 0.1 and 1 mg/kg, versus naive animals): dose dependent reversal | wet weight of prostate [2, 5]: did not have any effect | wet weight of seminal vesicle [2, 5]: did not have any effect | wet weight of prostate [2, 6]: significant increases | wet weight of seminal vesicle [2, 6]: significant increases | wet weight of levator ani muscle [2, 6]: significant increases

N#Cc1ccc(N2CCCCC2)c2ccccc12 [136BG73-10, 4-Piperidin-1-ylnaphthalene-1-carbonitrile]
pEC50 [3]: 8.10 | Emax [3]: 66%

N#Cc1ccc(N2[C@@H]3CC[C@H]2CC(O)C3)c2ccccc12 (stereo partly drawn) [154BG31, 4-(3-endo-Hydroxy-8-azabicyclo[3.2.1]oct-8-yl)naphthalene-1-carbonitrile]
dose at which complete reversal of plasma LH levels is evident [1]: 10 mg/kg | plasma LH levels ([1]; various doses, s.c. for 14 days): dose-dependent suppression | wet tissue weights (prostate, seminal vesicle, levator ani muscle) ([2]; 3 mg/kg s.c. daily for two weeks): did not appear to significantly alter | dose relative to TP at which negative side effects (increased seminal vesicle and prostate size) become evident ([2]; compared to TP): at least 100 × of TP | wet tissue weights (prostate, seminal vesicle, levator ani muscle) ([2]; higher doses (3 and 10 mg/kg) daily, not to the extent of TP): appeared to significantly increase

N#Cc1ccc(N2CCC(O)C2)c2ccccc12 (stereo not drawn) [136BG85-2, 4-(3-Hydroxypyrrolidin-1-yl)naphthalene-1-carbonitrile]
pEC50 [3]: 7.10 | Emax [3]: 41%

CC1CCC(C)N1c1ccc([N+](=O)[O-])c2ccccc12 (stereo not drawn)
pEC50 [3]: 8.10 | Emax [3]: 94%
